Data taken from US20150189883A1, “METHODS OF CONTROLLING INSECTS” (Syngenta Participations AG, priority 2012, published 2015).
Like-named read-outs stand apart in the source and are kept apart here.

Legend:
[1] = system: Chilo suppressalis (Rice Stem Borer); test: Chilo suppressalis (Rice Stem Borer) treated rice leaf petri dish test, mortality; format: in vivo; conditions: read-out: Control/%
Experimental: Nephotettix virescens (Green Leafhopper) Rice seedlings are treated with the diluted test solutions in a spray chamber. After drying, plants are infested with 10 N5 nymphs (3 replicates). 5 days after the treatment samples are checked for mortality. […] After drying, plants are infested with 20 N3 nymphs (2 replicates). 6-12 days after the treatment samples are checked for mortality. […] 10 larvae (L2) are added and the dish is covered with a filter tissue and a plastic lid. 5 days after treatment the percentage mortality is assessed (3 replicates per concentration).
The data in the comparative Examples below were obtained using the methods described above.

[2] = system: Nilaparvata lugens (Brown Plant Hopper); test: Nilaparvata lugens (Brown Plant Hopper) rice seedling spray test, mortality; format: in vivo; conditions: read-out: Control/%
[3] = Chilo suppressalis (Rice stem borer), application rate 0.2 ppm
[4] = Chilo suppressalis (Rice stem borer), application rate 0.8 ppm
[5] = Nilaparvata lugens (Brown plant hopper), application rate 25 ppm
[6] = Nilaparvata lugens (Brown plant hopper), application rate 50 ppm

| SMILES | pest or weed control at 0.2 ppm ([1]; Chilo suppressalis) [%] | pest or weed control at 0.8 ppm ([1]; Chilo suppressalis) [%] | pest or weed control at 25 ppm ([2]; Nilaparvata lugens) [%] | pest or weed control at 50 ppm ([2]; Nilaparvata lugens) [%] | other results |
| --- | --- | --- | --- | --- | --- |
| Cc1cc(C2=NOC(c3cc(Cl)cc(Cl)c3)(C(F)(F)F)C2)ccc1C(=O)NC1CSC1 (stereo not shown) [Compound of the invention] | 93 | 100 |  |  |  |
| Cc1cc(C2=NOC(c3cc(Cl)cc(Cl)c3)(C(F)(F)F)C2)ccc1C(=O)NC1(C)CSC1 (stereo not shown) [Reference compound, reference compound] | 30 | 40 |  |  |  |
| Cc1cc(C2=NCC(c3cc(Cl)cc(Cl)c3)(C(F)(F)F)C2)ccc1C(=O)NC1CSC1 (stereo not shown) [drawing 21] |  |  |  |  | pest or weed control at 0.2 ppm [1, 3]: 40%; pest or weed control at 0.8 ppm [1, 4]: 90% |
| Cc1cc(C2=NCC(c3cc(Cl)cc(Cl)c3)(C(F)(F)F)C2)ccc1C(=O)NC1(C)CSC1 (stereo not shown) [drawing 22] |  |  |  |  | pest or weed control at 0.2 ppm [1, 3]: 30%; pest or weed control at 0.8 ppm [1, 4]: 60% |
| Cc1cc(C2=NCC(c3cc(Cl)cc(Cl)c3)(C(F)(F)F)C2)ccc1C(=O)NC1CS(=O)(=O)C1 (stereo not shown) [drawing 23] |  |  |  |  | pest or weed control at 0.2 ppm [1, 3]: 97%; pest or weed control at 0.8 ppm [1, 4]: 100% |
| Cc1cc(C2=NCC(c3cc(Cl)cc(Cl)c3)(C(F)(F)F)C2)ccc1C(=O)NC1(C)CS(=O)(=O)C1 (stereo not shown) [drawing 24] |  |  |  |  | pest or weed control at 0.2 ppm [1, 3]: 23%; pest or weed control at 0.8 ppm [1, 4]: 60% |
| Cc1cc(C2=NOC(c3cc(Cl)c(Br)c(Cl)c3)(C(F)(F)F)C2)ccc1C(=O)NC1CSC1 (stereo not shown) [drawing 25] | 97 | 100 |  |  |  |
| Cc1cc(C2=NOC(c3cc(Cl)c(Br)c(Cl)c3)(C(F)(F)F)C2)ccc1C(=O)NC1(C)CSC1 (stereo not shown) [drawing 26] | 40 | 80 |  |  |  |
| O=C(NC1CSC1)c1ccc(C2=NO[C@@](c3cc(Cl)cc(Cl)c3)(C(F)(F)F)C2)cc1Cl [drawing 27] | 93 | 100 |  |  |  |
| CC1(NC(=O)c2ccc(C3=NO[C@@](c4cc(Cl)cc(Cl)c4)(C(F)(F)F)C3)cc2Cl)CSC1 [drawing 28] | 80 | 97 |  |  |  |
| Cc1cc(C2=NOC(c3cc(Cl)cc(Cl)c3)(C(F)(F)F)C2)ccc1C(=O)NC1CSC1 (stereo not shown) [drawing 29] |  |  | 44 | 79 |  |
| Cc1cc(C2=NOC(c3cc(Cl)cc(Cl)c3)(C(F)(F)F)C2)ccc1C(=O)NC1(C)CSC1 (stereo not shown) [drawing 30] |  |  | 0 | 0 |  |
| Cc1cc(C2=NCC(c3cc(Cl)cc(Cl)c3)(C(F)(F)F)C2)ccc1C(=O)NC1CSC1 (stereo not shown) [drawing 31] |  |  |  |  | pest or weed control at 25 ppm [2, 5]: 100%; pest or weed control at 50 ppm [2, 6]: 100% |
| Cc1cc(C2=NCC(c3cc(Cl)cc(Cl)c3)(C(F)(F)F)C2)ccc1C(=O)NC1(C)CSC1 (stereo not shown) [drawing 32] |  |  |  |  | pest or weed control at 25 ppm [2, 5]: 0%; pest or weed control at 50 ppm [2, 6]: 0% |
| Cc1cc(C2=NCC(c3cc(Cl)cc(Cl)c3)(C(F)(F)F)C2)ccc1C(=O)NC1CS(=O)(=O)C1 (stereo not shown) [drawing 33] |  |  |  |  | pest or weed control at 25 ppm [2, 5]: 93%; pest or weed control at 50 ppm [2, 6]: 100% |
| Cc1cc(C2=NCC(c3cc(Cl)cc(Cl)c3)(C(F)(F)F)C2)ccc1C(=O)NC1(C)CS(=O)(=O)C1 (stereo not shown) [drawing 34] |  |  |  |  | pest or weed control at 25 ppm [2, 5]: 0%; pest or weed control at 50 ppm [2, 6]: 0% |
| Cc1cc(C2=NOC(c3cc(Cl)c(Br)c(Cl)c3)(C(F)(F)F)C2)ccc1C(=O)NC1CSC1 (stereo not shown) [drawing 35] |  |  | 30 | 80 |  |
| Cc1cc(C2=NOC(c3cc(Cl)c(Br)c(Cl)c3)(C(F)(F)F)C2)ccc1C(=O)NC1(C)CSC1 (stereo not shown) [drawing 36] |  |  | 0 | 0 |  |
| O=C(NC1CSC1)c1ccc(C2=NO[C@@](c3cc(Cl)cc(Cl)c3)(C(F)(F)F)C2)cc1Cl [drawing 37] |  |  | 15 | 45 |  |
| CC1(NC(=O)c2ccc(C3=NO[C@@](c4cc(Cl)cc(Cl)c4)(C(F)(F)F)C3)cc2Cl)CSC1 [drawing 38] |  |  | 0 | 30 |  |
